Measurements taken from US8652799B2, “Method of detecting bioactive molecules in a fluid sample” (priority 2008, dated 2014).
Read-outs that look alike come from different tables or passages of the source.

Tests used:
Format in all cases: cell-based
[1] = tested on: Chlorella vulgaris; test: Tetracycline detection with Chlorella vulgaris (ambient light, 35° C., low algae concentration); settings: within 15 minutes, neutral pH, 2.5×10^6 cells/mL
Experimental: A Chlorella vulgaris culture was prepared as described in Example 1 above. As indicated in Example 1, the algae were reactivated before testing under ambient light and at room temperature during 90 minutes.
The algae formulation was then incubated for 15 or 60 minutes with water containing tetracycline at the indicated concentrations (FIG. 17) under ambient light at a temperature of 35° C. and at a neutral pH. Algae concentrations of 2.5×10^6 cells/mL (50 μL of algae within 2 mL of tetracycline-containing aqueous solutions (i.e. distilled water)) were tested. Testing was performed in triplicates. The fluorescence emitted by each formulation was then measured with Luminotox™, a fluorometer that measures photosynthetic activity.

[2] = tested on: Anabaena sp.; test: Detection of bioactive molecules with Anabaena sp.: inhibition of photosynthetic fluorescence (Luminotox); settings: 10 min, neutral pH; for inhibition at 0.001 ppm: 1 ppb
Experimental: The photosynthetic efficiency is determined with the following formula (F2−F1)/F2. Any molecule affecting directly or indirectly the photosystems modify either F1 or F2 which modification necessarily decreases the photosynthetic efficiency. The inhibition curve of a particular molecule is determined by calculating the activity of the photosystems in the absence of the molecule and in the presence of the molecule and comparing both efficiency as follows as described in Conrad 1993:
Without Inhibitor (wi): efficiency(wi)=(F2(wi)−F1(wi)/F2(wi) With Inhibitor: Relative photosynthetic efficiency(sample)=(F2(sample)−F1(sample))/F2(wi) Percentage Efficiency: efficiency (%)=(efficiency(sample)×100)/efficiency(wi) Percentage Inhibition: Inhibition (%)=100−efficiency (%)
An Anabaena sp. culture was prepared as described in Example 3 above. As indicated in Example 3, the cyanobacteria were reactivated before testing under ambient light and at room temperature during 60 minutes.
The culture was then incubated with bioactive molecules listed in Table 1 below at concentrations of 1 ppm (except for atrazine which was used at a concentration of 1 ppb) for 10 minutes under ambient light followed by 10 minutes under green light and neutral pH. The cellular concentration was 1.0×10^7 cells/mL (100 μL of cyanobacteria within 2 mL of bioactive agent containing aqueous solution (i.e. distilled water)). Testing was performed in triplicates. The fluorescence emitted by each formulation was then measured with Luminotox™ a fluorometer that measures photosynthetic activity.

[3] = tested on: Dunaliella tertiolecta; settings: 15 min. green light exposition at room temperature; neutral pH (pH 7); 350 000 cells/mL
Experimental: (§1) The detection threshold was obtained with the geometric mean. It was calculated with the following formula: Detection threshold=(CSEO×CMEO)^1/2 where
(§2) CMEO=minimal concentration resulting in a detectable inhibition of the algae efficacy.
(§3) CSEO and CMEO were estimated by a variance analysis ANNOVA™ followed by a Dunnett multiple comparison by comparing the mean efficacy of each tested concentration with the control mean. Calculations were performed with TOXSTAT™ (Version 3.5).
A Dunaliella tertiolecta culture was prepared as described in Example 2 above. As indicated in Example 2, the algae were reactivated before testing under ambient light and at room temperature during 45 minutes.
The algae formulations were then incubated for 15 minutes with water containing one of the various contaminants listed in Table 2 below at neutral pH under green light and at room temperature. The algae concentration was 350 000 cells/mL (500 μL of algae within 2 mL of aqueous solution (i.e. distilled water) containing substance to detect at indicated concentrations). For each substances, 5 concentrations in triplicates were tested. The TOXSTAT™ software was used to calculate from inhibition values and standard deviations obtained, the maximum concentration without observable effect and the minimal concentration with observable effects (See Table 2 below). The temperature was controlled by a thermostatic bath. Tests were performed in triplicates. The fluorescence emitted by each formulation was then measured with Luminotox™, a fluorometer that measures photosynthetic activity and detection threshold determined as described in the Example above.

[4] = tested on: Chlorella vulgaris; test: Stability of Chlorella vulgaris assessed by the CI20 of atrazine; settings: 10 min green light, room temperature; + or − two sigma 0.002; algae stored at 4° C. and 20° C.; atrazine tested 0-0.04 mg/L
Experimental: The stability of Chlorella vulgaris was evaluated by determining the Cl20 of atrazine using seven different atrazine concentrations. Cl20 is the concentration of atrazine inhibiting 20% of the efficacy emitted by Chlorella vulgaris as compared to a control Chlorella vulgaris preparation. The Cl20 is statistically determined with the software Icp version 2.0. Stability over time is determined by assessing the number of Cl20 within a range of 2 σ of average.
A Chlorella vulgaris culture was prepared as described in Example 1 above. As indicated above, the algae were reactivated before testing during 90 minutes under ambient light and at room temperature.
The culture was then incubated with atrazine for 10 minutes under green light and at room temperature. The cellular concentration of the algae was 5×10^6 cells/mL of solution (100 μL algae in 2 mL of atrazine-containing aqueous solution (i.e. distilled water)). The concentration of atrazine varied between 0 and 0.04 mg/L. Testing was performed in triplicates. The fluorescence emitted by each formulation was then measured with Luminotox™, a fluorometer that measures photosynthetic activity.

[5] = tested on: Chlorella vulgaris; settings: 10-15 min. green light exposition at room temperature; neutral pH (pH 7); 5×10^6 cells/mL
Experimental: The algae concentration was 5×10^6 cells/mL (100 μL of algae within 2 mL of aqueous solution (i.e. distilled water)) containing the substance to detect at indicated concentrations. For each substances, 5 concentrations in triplicates were tested. The TOXSTAT™ software was used to calculate from inhibition values and standard deviations obtained, the maximum concentration without observable effect and the minimal concentration with observable effects. The threshold was calculated with the following formula: (maximum concentration without observable effect x minimal concentration with observable effects)^1/2 (See Table 2 below). The temperature was controlled by a thermostatic bath.
as §1, §2, §3

| Structure (SMILES) | Concentration detected [1] | inhibition at 1 ppm ([2]; 10 min ambient light followed by 10 min green light, read-out: Inhibition obtained at 1 ppm (followed by 10 min green light)) | inhibition at 1 ppm ([2]; 10 min ambient light, 1.0×10^7 cells/mL, read-out: Inhibition obtained at 1 ppm (10 min ambiant light)) | Detection threshold [3] | inhibition at 0.001 ppm ([2]; 10 min ambient light followed by 10 min green light, read-out: Inhibition obtained (followed by 10 min green light)) | inhibition at 0.001 ppm ([2]; 10 min ambient light, read-out: Inhibition obtained (10 min ambiant light)) | CI20 (concentration inhibiting 20% of the efficacy), average over storage [4] | Detection threshold [5] |
| --- | --- | --- | --- | --- | --- | --- | --- | --- |
| CN(C)[C@@H]1C(O)=C(C(N)=O)C(=O)[C@@]2(O)C(O)=C3C(=O)c4c(O)cccc4[C@@](C)(O)[C@H]3C[C@@H]12 [tetracycline] | 10 µg/mL | 30% | 0% | – | – | – | – | – |
| CCNc1nc(Cl)nc(NC(C)C)n1 [atrazine] | – | – | – | 0.01 ppm | 13% | 1% | 0.0037 | 0.0007 ppm |
